Tests used:
PDGFR-β = molecular target: T1, PDGFR-β (Homo sapiens, UniProt P09619); assay: ELISA tyrosine kinase activity assay, single concentration; assay type: biochemical; conditions: read-out: Inhibition Rate(%) / PDGFR-β
T1 construct: gene PDGFRB; purified tyrosine kinase protein

PDGFR-α = molecular target: T2, PDGFR-α (Homo sapiens, UniProt P16234); assay: as above; assay type: biochemical; conditions: read-out: Inhibition Rate(%) / PDGFR-α
T2 construct: gene PDGFRA; purified tyrosine kinase protein

Flt-1 = molecular target: T3, Flt-1 (Homo sapiens, UniProt P17948); assay: as above; assay type: biochemical; conditions: read-out: Inhibition Rate(%) / Flt-1
T3 construct: gene FLT1; purified tyrosine kinase protein

STAT3 = molecular target: T4, STAT3 (Homo sapiens, UniProt P40763); assay: fluorescence polarization competition with 5-carboxyfluorescein-GpYLPQTV-NH2; […], […], […] inhibition at […]; assay type: binding
T4 construct: STAT3 protein (ab43618, Abcam)
T4 sequence (P40763 2-770): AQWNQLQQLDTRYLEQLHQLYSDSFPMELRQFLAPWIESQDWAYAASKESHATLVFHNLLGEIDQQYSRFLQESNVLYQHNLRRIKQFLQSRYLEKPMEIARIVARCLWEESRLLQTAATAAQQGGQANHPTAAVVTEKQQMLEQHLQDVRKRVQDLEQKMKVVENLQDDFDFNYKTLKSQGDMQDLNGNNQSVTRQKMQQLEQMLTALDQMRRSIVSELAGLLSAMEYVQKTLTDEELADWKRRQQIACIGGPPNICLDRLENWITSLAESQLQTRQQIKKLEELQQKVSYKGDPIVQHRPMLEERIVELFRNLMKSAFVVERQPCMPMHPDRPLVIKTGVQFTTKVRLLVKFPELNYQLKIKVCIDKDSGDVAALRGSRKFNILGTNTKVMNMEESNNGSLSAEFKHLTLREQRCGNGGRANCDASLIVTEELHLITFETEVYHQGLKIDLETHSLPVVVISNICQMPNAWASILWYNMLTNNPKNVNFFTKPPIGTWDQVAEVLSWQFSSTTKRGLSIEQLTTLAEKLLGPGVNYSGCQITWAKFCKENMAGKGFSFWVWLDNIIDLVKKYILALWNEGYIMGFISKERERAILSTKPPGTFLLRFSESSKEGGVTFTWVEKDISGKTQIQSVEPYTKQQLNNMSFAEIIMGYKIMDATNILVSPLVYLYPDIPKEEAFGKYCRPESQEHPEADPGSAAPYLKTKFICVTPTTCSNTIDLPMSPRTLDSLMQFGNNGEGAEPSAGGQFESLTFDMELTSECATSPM

T2 sequence (P16234 24-1089): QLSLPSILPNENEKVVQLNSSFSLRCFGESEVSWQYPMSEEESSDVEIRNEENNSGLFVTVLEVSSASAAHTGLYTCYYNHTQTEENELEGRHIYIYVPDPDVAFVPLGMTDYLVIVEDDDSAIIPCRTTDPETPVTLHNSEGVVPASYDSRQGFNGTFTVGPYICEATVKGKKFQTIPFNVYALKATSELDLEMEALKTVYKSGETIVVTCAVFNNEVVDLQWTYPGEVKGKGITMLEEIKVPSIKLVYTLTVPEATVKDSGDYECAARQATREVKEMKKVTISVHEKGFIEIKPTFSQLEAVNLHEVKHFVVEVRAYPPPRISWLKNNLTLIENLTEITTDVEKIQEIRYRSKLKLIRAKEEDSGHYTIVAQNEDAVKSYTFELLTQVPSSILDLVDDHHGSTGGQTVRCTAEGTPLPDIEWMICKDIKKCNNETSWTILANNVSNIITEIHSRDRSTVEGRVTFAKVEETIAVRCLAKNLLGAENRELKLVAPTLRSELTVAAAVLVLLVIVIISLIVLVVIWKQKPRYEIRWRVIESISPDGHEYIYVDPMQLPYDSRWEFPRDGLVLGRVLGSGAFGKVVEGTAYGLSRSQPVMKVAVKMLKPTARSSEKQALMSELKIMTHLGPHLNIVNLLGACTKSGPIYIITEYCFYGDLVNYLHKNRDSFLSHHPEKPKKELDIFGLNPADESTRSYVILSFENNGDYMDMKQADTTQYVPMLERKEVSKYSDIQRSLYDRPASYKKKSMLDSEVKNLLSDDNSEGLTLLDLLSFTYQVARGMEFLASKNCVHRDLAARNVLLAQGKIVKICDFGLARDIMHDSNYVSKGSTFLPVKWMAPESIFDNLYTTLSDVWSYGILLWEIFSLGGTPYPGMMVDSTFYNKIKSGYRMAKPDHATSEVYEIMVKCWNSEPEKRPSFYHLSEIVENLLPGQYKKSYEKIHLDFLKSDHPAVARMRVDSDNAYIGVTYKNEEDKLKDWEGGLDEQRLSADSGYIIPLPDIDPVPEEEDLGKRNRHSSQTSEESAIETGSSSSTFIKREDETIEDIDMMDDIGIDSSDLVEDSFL
T3 sequence (P17948 27-1338): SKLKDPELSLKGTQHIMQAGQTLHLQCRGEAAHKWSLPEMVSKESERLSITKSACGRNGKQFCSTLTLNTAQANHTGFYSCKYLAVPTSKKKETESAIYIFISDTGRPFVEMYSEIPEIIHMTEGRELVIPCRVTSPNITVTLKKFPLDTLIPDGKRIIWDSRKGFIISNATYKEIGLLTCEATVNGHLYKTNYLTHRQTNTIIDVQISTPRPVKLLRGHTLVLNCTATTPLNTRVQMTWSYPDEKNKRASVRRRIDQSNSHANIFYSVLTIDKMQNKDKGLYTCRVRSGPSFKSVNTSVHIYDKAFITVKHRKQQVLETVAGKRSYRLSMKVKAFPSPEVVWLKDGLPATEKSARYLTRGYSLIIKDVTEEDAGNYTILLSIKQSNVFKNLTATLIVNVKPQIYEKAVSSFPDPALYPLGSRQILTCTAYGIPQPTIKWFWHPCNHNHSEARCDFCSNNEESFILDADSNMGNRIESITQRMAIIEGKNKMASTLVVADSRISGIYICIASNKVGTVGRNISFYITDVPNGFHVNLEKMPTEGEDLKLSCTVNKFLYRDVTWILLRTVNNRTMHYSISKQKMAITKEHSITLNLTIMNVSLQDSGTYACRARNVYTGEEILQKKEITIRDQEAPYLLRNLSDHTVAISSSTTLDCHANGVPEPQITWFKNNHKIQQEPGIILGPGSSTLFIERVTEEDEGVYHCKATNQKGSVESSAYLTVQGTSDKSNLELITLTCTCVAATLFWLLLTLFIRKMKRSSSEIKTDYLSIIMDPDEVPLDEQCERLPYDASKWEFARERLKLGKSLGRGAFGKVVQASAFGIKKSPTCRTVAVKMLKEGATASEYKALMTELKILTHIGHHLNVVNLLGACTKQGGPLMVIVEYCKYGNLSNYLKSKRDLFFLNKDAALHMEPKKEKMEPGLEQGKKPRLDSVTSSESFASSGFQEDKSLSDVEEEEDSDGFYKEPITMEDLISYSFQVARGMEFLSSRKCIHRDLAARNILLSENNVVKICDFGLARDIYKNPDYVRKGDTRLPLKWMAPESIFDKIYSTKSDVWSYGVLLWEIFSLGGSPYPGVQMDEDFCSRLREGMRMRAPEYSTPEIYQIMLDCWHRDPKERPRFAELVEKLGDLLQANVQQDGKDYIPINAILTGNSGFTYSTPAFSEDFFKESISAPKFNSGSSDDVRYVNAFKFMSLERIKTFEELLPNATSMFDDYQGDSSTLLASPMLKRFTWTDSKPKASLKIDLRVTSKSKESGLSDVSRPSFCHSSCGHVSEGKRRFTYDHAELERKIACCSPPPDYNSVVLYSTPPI
T1 sequence (P09619 33-1106): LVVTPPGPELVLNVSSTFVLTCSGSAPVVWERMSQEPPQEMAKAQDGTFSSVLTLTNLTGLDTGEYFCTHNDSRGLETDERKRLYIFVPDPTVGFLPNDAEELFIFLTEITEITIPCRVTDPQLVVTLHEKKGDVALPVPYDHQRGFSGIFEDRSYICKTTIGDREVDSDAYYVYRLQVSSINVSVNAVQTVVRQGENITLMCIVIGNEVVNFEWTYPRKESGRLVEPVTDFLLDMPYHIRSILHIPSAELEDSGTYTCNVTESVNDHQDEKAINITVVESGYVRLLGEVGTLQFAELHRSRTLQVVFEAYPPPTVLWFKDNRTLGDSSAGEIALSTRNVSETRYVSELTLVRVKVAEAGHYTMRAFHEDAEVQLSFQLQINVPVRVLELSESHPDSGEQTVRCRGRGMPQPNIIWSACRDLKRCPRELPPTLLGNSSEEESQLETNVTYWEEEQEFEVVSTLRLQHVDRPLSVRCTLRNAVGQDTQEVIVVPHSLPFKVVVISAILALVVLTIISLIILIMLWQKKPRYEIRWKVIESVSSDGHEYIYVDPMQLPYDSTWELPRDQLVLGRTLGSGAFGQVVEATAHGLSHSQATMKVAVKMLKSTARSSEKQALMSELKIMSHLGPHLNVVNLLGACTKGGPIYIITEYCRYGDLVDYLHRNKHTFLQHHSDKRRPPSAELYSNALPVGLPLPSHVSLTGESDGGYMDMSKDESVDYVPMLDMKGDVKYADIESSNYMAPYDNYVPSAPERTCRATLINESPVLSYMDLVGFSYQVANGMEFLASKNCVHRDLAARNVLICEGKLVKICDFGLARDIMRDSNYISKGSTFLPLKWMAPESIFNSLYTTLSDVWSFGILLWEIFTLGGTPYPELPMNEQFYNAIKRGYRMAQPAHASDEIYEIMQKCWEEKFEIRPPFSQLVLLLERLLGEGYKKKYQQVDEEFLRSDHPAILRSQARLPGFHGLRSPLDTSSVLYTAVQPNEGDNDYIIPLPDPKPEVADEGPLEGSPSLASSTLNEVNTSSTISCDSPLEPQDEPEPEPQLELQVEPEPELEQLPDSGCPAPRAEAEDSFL

SMILES	inhibition at 1 µM (PDGFR-β)	inhibition at 1 µM (PDGFR-α)	inhibition at 1 µM (Flt-1)	% inhibition at 2 μM (STAT3)
CCN(CC)CCNC(=O)c1c(C)[nH]c(/C=C2\C(=O)Nc3ccc(F)cc32)c1C [Su11248]	80.2%	68.4%	66.6%	–
C/C=C\C(=O)O[C@@H]1C[C@H]2O[C@@H]3C=C(C)C(=O)C[C@]3(C)[C@]1(C)[C@]21CO1 [TCN, trichothecin]	–	–	–	53.9

Source: article PMC7287781 (Molecules, 2020)
